{"source": "patent US11116757B2", "about": "(priority 2015, dated 2021)", "key": {"[1]": {"assay": "Seven day spermatogenesis study", "assay_type": "in vivo", "details": "for Weight: oral gavage, B.I.D.; for Motility / Sperm Count / Viability (%): oral gavage B.I.D."}, "HCC95 cancer cells": {"system": "HCC95 cancer cells", "assay": "Cullin neddylation in cancer cells (cell lysis and western blot)", "assay_type": "cell-based", "method": "Cell pellets harvested from a 6 well dish were resuspended in 30-40 μL of lysis buffer (50 mM Tris, 150 mM NaCl, 0.5% NP-40, 0.1% SDS, 6.5 M Urea, 2 mM 1,10-orthophenanthroline, 1× Halt Protease and Phosphatase inhibitor cocktail (ThermoFisher), 0.25 kU Universal Nuclease (ThermoFisher), pH 7.5). Cell pellet suspensions were incubated on ice for 25 minutes with occasional mixing by pipetting up and down. Lysates were cleared by centrifugation at 13 K rpm for 20 minutes and the supernatant was removed as total cell lysate sample. Protein concentration of the cell lysate was determined by BCA assay (Pierce) using BSA as a control. Cell lysates were diluted into 2×SDS-PAGE sample buffer such that 25 μg of total protein was loaded per well. […] Primary antibodies were prepared in blocking buffer and incubated with membranes overnight at 4° C. with rocking. Membranes were extensively washed in 1×TBS, 0.1% Tween-20. Secondary antibodies were prepared in blocking buffer according to the manufactures recommendations and incubated with membranes for 1 hour at room temperature. After extensive washing the membranes were developed with SuperSignal West Pico Chemiluminescent substrate (ThermoFisher) and developed by film exposure (HyBlot CL, Denville scientific)."}, "in vivo": {"assay": "in vivo", "details": "for concentration at 3 day / concentration at 7 day / concentration at 24.4 h / concentration at […] / concentration at 1 h: male; for concentration at 3 day: Day 3; for concentration at 7 day: Day 7"}, "U-2 OS cells": {"system": "U-2 OS cells", "assay": "Electron microscopy of compound treated cells", "assay_type": "cell-based"}, "HCC95 cells": {"system": "HCC95 cells", "assay": "Soft agar anchorage independent growth assay", "assay_type": "cell-based", "details": "10 μM"}, "[2]": {"details": "preliminary experiment"}, "endosome maturation": {"system": "endosome maturation", "assay": "Endosome maturation (LAMP1 positive vesicles) imaging", "assay_type": "cell-based"}, "DCN1-UBC12 interaction": {"biological_target": "DCN1-UBC12 interaction (Homo sapiens (Human), UniProt Q96GG9)", "sequence (Q96GG9 60-248 limits assumed)": "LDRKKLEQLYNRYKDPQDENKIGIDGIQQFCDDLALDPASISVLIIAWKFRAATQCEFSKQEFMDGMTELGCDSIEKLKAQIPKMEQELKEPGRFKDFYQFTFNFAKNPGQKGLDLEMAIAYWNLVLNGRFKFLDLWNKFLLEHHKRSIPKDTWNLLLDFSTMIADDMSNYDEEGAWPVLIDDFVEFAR", "assay": "biochemical", "assay_type": "binding", "details": "read-out: TR-FRET IC50"}, "[3]": {"details": "Plasma Concentration (μM), 50 mg/kg"}, "[4]": {"details": "Plasma Concentration (μM), 100 mg/kg"}, "[5]": {"details": "Plasma Concentration, Repeat Dose (0 and 7.5 hr)"}, "[6]": {"details": "Plasma Concentration, Single Dose (0 hr)"}, "[7]": {"details": "Testis Concentration (μM), 50 mg/kg"}, "[8]": {"details": "Testis Concentration (μM), 100 mg/kg"}, "[9]": {"details": "Testis Concentration, Repeat Dose (0 and 7.5 hr)"}, "[10]": {"details": "Testis Concentration, Single Dose (0 hr)"}}, "note": "Entries after “also recorded” stand apart in the source; their conditions may differ.", "data": [{"smiles": "CCCCN1CCC(N(Cc2ccccc2)C(=O)Nc2ccc(Cl)c(Cl)c2)CC1", "note": "[A7]", "values": [{"measurement": "Weight", "setting": "[1]; 50 mpk", "result": "146.3 ± 27.7", "unit": "mg"}, {"measurement": "Weight", "setting": "[1]; 100 mpk", "result": "150.1 ± 18.9", "unit": "mg"}, {"measurement": "Motility", "setting": "[1]; animal 50 mpk-1", "result": "Stationary"}, {"measurement": "Sperm Count", "setting": "[1]; animal 50 mpk-1", "result": "Low"}, {"measurement": "Viability (%)", "setting": "[1]; animal 50 mpk-1", "result": "<20", "unit": "%"}, {"measurement": "Motility", "setting": "[1]; animal 50 mpk-2", "result": "Stationary"}, {"measurement": "Sperm Count", "setting": "[1]; animal 50 mpk-2", "result": "Low"}, {"measurement": "Viability (%)", "setting": "[1]; animal 50 mpk-2", "result": 0, "unit": "%"}, {"measurement": "Motility", "setting": "[1]; animal 50 mpk-3", "result": "Good, erratic"}, {"measurement": "Sperm Count", "setting": "[1]; animal 50 mpk-3", "result": "Normal"}, {"measurement": "Viability (%)", "setting": "[1]; animal 50 mpk-3", "result": ">50", "unit": "%"}, {"measurement": "Motility", "setting": "[1]; animal 100 mpk-1", "result": "No movement"}, {"measurement": "Sperm Count", "setting": "[1]; animal 100 mpk-1", "result": "Low"}, {"measurement": "Viability (%)", "setting": "[1]; animal 100 mpk-1", "result": "<10", "unit": "%"}, {"measurement": "Motility", "setting": "[1]; animal 100 mpk-2", "result": "Erratic"}, {"measurement": "Sperm Count", "setting": "[1]; animal 100 mpk-2", "result": "Low"}, {"measurement": "Viability (%)", "setting": "[1]; animal 100 mpk-2", "result": "<5", "unit": "%"}, {"measurement": "Motility", "setting": "[1]; animal 100 mpk-3", "result": "Limited"}, {"measurement": "Sperm Count", "setting": "[1]; animal 100 mpk-3", "result": "Low"}, {"measurement": "Viability (%)", "setting": "[1]; animal 100 mpk-3", "result": "<10", "unit": "%"}, {"measurement": "levels of neddylated Cullins / cullin neddylation", "setting": "HCC95 cancer cells", "result": "reduce the levels of neddylated Cullins; also recorded: selectively inhibit cullin neddylation"}, {"measurement": "half-life", "setting": "in vivo", "result": "4 to 5", "unit": "h"}, {"measurement": "concentration at 3 day", "setting": "in vivo; [3]", "result": "2.7 ± 2.4", "unit": "µM"}, {"measurement": "concentration at 7 day", "setting": "in vivo; [3]", "result": "1.7 ± 1.2", "unit": "µM"}, {"measurement": "concentration at 3 day", "setting": "in vivo; [4]", "result": "2.4 ± 1.2", "unit": "µM"}, {"measurement": "concentration at 7 day", "setting": "in vivo; [4]", "result": "1.4 ± 0.6", "unit": "µM"}, {"measurement": "concentration at 24.4 h", "setting": "in vivo; [5]", "result": "0.62 ± 0.16", "unit": "µM"}, {"measurement": "concentration at […]", "setting": "in vivo; [5]", "result": "4.8 ± 1.3", "unit": "µM"}, {"measurement": "concentration at 1 h", "setting": "in vivo; [6]", "result": "3.7 ± 0.95", "unit": "µM"}, {"measurement": "concentration at 24.4 h", "setting": "in vivo; [6]", "result": "0.47 ± 0.32", "unit": "µM"}, {"measurement": "concentration at 3 day", "setting": "in vivo; [7]", "result": "11.6 ± 3.4", "unit": "µM"}, {"measurement": "concentration at 7 day", "setting": "in vivo; [7]", "result": "8.25 ± 4.1", "unit": "µM"}, {"measurement": "concentration at 3 day", "setting": "in vivo; [8]", "result": "25.9 ± 11.1", "unit": "µM"}, {"measurement": "concentration at 7 day", "setting": "in vivo; [8]", "result": "31.2 ± 12.8", "unit": "µM"}, {"measurement": "concentration at 24.4 h", "setting": "in vivo; [9]", "result": "6.2 ± 5.3", "unit": "µM"}, {"measurement": "concentration at […]", "setting": "in vivo; [9]", "result": "16.7 ± 3.1", "unit": "µM"}, {"measurement": "concentration at 1 h", "setting": "in vivo; [10]", "result": "2.1 ± 0.74", "unit": "µM"}, {"measurement": "concentration at 24.4 h", "setting": "in vivo; [10]", "result": "4.4 ± 3.3", "unit": "µM"}, {"measurement": "vacuolar structures by electron microscopy", "setting": "U-2 OS cells", "result": "presence of large vacuolar structures"}, {"measurement": "anchorage independent growth", "setting": "HCC95 cells", "result": "inhibit the anchorage independent growth of HCC95 cells"}, {"measurement": "maximum serum concentration", "setting": "[2]", "result": "1.5 to 3", "unit": "µM"}]}, {"smiles": "CCCC(C)N1CCC(N(Cc2ccccc2)C(=O)Nc2cccc(C(F)(F)F)c2)CC1", "note": "(stereo not drawn) [A15, 1-Benzyl-1-(1-(Pentan-2-yl)Piperidin-4-yl)-3-(3-(Trifluoromethyl)Phenyl)Urea]", "values": [{"measurement": "effect on endosome maturation", "setting": "endosome maturation; 10 μM on cells", "result": "affect endosome maturation"}, {"measurement": "vacuolar structures by electron microscopy", "setting": "U-2 OS cells", "result": "presence of large vacuolar structures"}]}, {"smiles": "C=CC(=O)Nc1cccc(CN(C(=O)Nc2cccc(C(F)(F)F)c2)C2CCN(C(C)CCC)CC2)c1", "note": "(stereo not drawn) [A18]", "values": [{"measurement": "levels of neddylated Cullins / cullin neddylation", "setting": "HCC95 cancer cells", "result": "reduce the levels of neddylated Cullins; also recorded: selectively inhibit cullin neddylation"}, {"measurement": "anchorage independent growth", "setting": "HCC95 cells", "result": "inhibit the anchorage independent growth of HCC95 cells"}, {"measurement": "IC50", "setting": "DCN1-UBC12 interaction", "result": 0.111, "unit": "µM"}]}, {"smiles": "CCCCN1CCC(N(Cc2ccc3c(c2)OCO3)C(=O)Nc2cc(F)cc(C(F)(F)F)c2)CC1", "note": "[A83]", "values": [{"measurement": "effect on endosome maturation", "setting": "endosome maturation; 3 μM on cells", "result": "affect endosome maturation"}, {"measurement": "IC50", "setting": "DCN1-UBC12 interaction", "result": 0.901, "unit": "µM"}]}]}
